Calls of active or inactive are those of the source.
Legend:
[1] = tested on: Rotala indica; test: Pre-emergence herbicidal activity against Rotala indica assessed as bleaching of stem/leaf parts; format: functional, organism-based
[2] = tested on: Elatine triandra; test: Post-emergence herbicidal activity against Elatine triandra assessed as bleaching of stem/leaf parts; format: functional, organism-based; also: test concentration or dose not given here
[3] = tested on: Cyperus difformis; test: Pre-emergence herbicidal activity against Cyperus difformis assessed as bleaching of stem/leaf parts; format: functional, organism-based
[4] = tested on: Lindernia procumbens; test: Pre-emergence herbicidal activity against Lindernia procumbens at 500 g a.i/ha measured after 14 days; format: functional, organism-based
[5] = tested on: Pontederia vaginalis; test: Pre-emergence herbicidal activity against Monochoria vaginalis assessed as bleaching of stem/leaf parts; format: functional, organism-based
[6] = tested on: Eleocharis acicularis; test: Post-emergence herbicidal activity against Eleocharis acicularis assessed as bleaching of stem/leaf parts; format: functional, organism-based; also: test concentration or dose not given here
[7] = tested on: Rotala indica; test: Pre-emergence herbicidal activity against Rotala indica at 500 g a.i/ha measured after 14 days; format: functional, organism-based
[8] = tested on: Eleocharis acicularis; test: Pre-emergence herbicidal activity against Eleocharis acicularis at 500 g a.i/ha measured after 14 days; format: functional, organism-based
[9] = tested on: Schoenoplectiella juncoides; test: Pre-emergence herbicidal activity against Schoenoplectiella juncoides assessed as bleaching of stem/leaf parts; format: functional, organism-based
[10] = tested on: Oryza sativa; test: Phytotoxicity against Oryza sativa cv. Koshihikari (rice) at 500 g a.i/ha measured after 14 days; format: organism-based; conditions: in vivo, 336 h
[11] = tested on: Cyperus difformis; test: Pre-emergence herbicidal activity against Cyperus difformis at 500 g a.i/ha measured after 14 days; format: functional, organism-based
[12] = tested on: Echinochloa oryzicola; test: Post-emergence herbicidal activity against Echinochloa oryzicola assessed as bleaching of stem/leaf parts; format: functional, organism-based; also: test concentration or dose not given here
[13] = tested on: Echinochloa oryzicola; test: Pre-emergence herbicidal activity against Echinochloa oryzicola at 500 g a.i/ha measured after 14 days; format: functional, organism-based
[14] = tested on: Ammannia multiflora; test: Pre-emergence herbicidal activity against Ammannia multiflora at 500 g a.i/ha measured after 14 days; format: functional, organism-based
[15] = tested on: Ammannia multiflora; test: Post-emergence herbicidal activity against Ammannia multiflora assessed as bleaching of stem/leaf parts; format: functional, organism-based; also: test concentration or dose not given here
[16] = tested on: Cyperus difformis; test: Post-emergence herbicidal activity against Cyperus difformis assessed as bleaching of stem/leaf parts; format: functional, organism-based; also: test concentration or dose not given here
[17] = tested on: Ammannia multiflora; test: Pre-emergence herbicidal activity against Ammannia multiflora assessed as bleaching of stem/leaf parts; format: functional, organism-based
[18] = tested on: Pontederia vaginalis; test: Post-emergence herbicidal activity against Monochoria vaginalis assessed as bleaching of stem/leaf parts; format: functional, organism-based; also: test concentration or dose not given here
[19] = tested on: Rotala indica; test: Post-emergence herbicidal activity against Rotala indica assessed as bleaching of stem/leaf parts; format: functional, organism-based; also: test concentration or dose not given here
[20] = tested on: Schoenoplectiella juncoides; test: Post-emergence herbicidal activity against Schoenoplectiella juncoides assessed as bleaching of stem/leaf parts; format: functional, organism-based; also: test concentration or dose not given here
[21] = tested on: Lindernia procumbens; test: Pre-emergence herbicidal activity against Lindernia procumbens assessed as bleaching of stem/leaf parts; format: functional, organism-based
[22] = tested on: Schoenoplectiella juncoides; test: Pre-emergence herbicidal activity against Schoenoplectiella juncoides at 500 g a.i/ha measured after 14 days; format: functional, organism-based
[23] = tested on: Lindernia procumbens; test: Post-emergence herbicidal activity against Lindernia procumbens assessed as bleaching of stem/leaf parts; format: functional, organism-based; also: test concentration or dose not given here
[24] = tested on: Eleocharis acicularis; test: Pre-emergence herbicidal activity against Eleocharis acicularis assessed as bleaching of stem/leaf parts; format: functional, organism-based
[25] = tested on: Pontederia vaginalis; test: Pre-emergence herbicidal activity against Monochoria vaginalis at 500 g a.i/ha measured after 14 days; format: functional, organism-based
[26] = tested on: Elatine triandra; test: Pre-emergence herbicidal activity against Elatine triandra assessed as bleaching of stem/leaf parts; format: functional, organism-based
[27] = tested on: Echinochloa oryzicola; test: Pre-emergence herbicidal activity against Echinochloa oryzicola assessed as bleaching of stem/leaf parts; format: functional, organism-based
[28] = tested on: Elatine triandra; test: Pre-emergence herbicidal activity against Elatine triandra at 500 g a.i/ha measured after 14 days; format: functional, organism-based
[29] = tested on: Elatine triandra; test: Pre-emergence herbicidal activity against Elatine triandra at 100 g a.i/ha measured after 14 days; format: functional, organism-based
[30] = tested on: Ammannia multiflora; test: Pre-emergence herbicidal activity against Ammannia multiflora at 100 g a.i/ha measured after 14 days; format: functional, organism-based
[31] = tested on: Lindernia procumbens; test: Pre-emergence herbicidal activity against Lindernia procumbens at 100 g a.i/ha measured after 14 days; format: functional, organism-based
[32] = tested on: Echinochloa oryzicola; test: Pre-emergence herbicidal activity against Echinochloa oryzicola at 100 g a.i/ha measured after 14 days; format: functional, organism-based
[33] = tested on: Schoenoplectiella juncoides; test: Pre-emergence herbicidal activity against Schoenoplectiella juncoides at 100 g a.i/ha measured after 14 days; format: functional, organism-based
[34] = tested on: Oryza sativa; test: Phytotoxicity against Oryza sativa cv. Koshihikari (rice) at 100 g a.i/ha measured after 14 days; format: organism-based; conditions: in vivo, 336 h
[35] = tested on: Rotala indica; test: Pre-emergence herbicidal activity against Rotala indica at 100 g a.i/ha measured after 14 days; format: functional, organism-based
[36] = tested on: Pontederia vaginalis; test: Pre-emergence herbicidal activity against Monochoria vaginalis at 100 g a.i/ha measured after 14 days; format: functional, organism-based
[37] = tested on: Cyperus difformis; test: Pre-emergence herbicidal activity against Cyperus difformis at 100 g a.i/ha measured after 14 days; format: functional, organism-based

SMILES	Activity [1]	Activity [2]	Activity [3]	Activity [4]	Activity [5]	Activity [6]	Activity [7]	Activity [9]	Activity [10]	Activity [11]	Activity [12]	Activity [13]	Activity [14]	Activity [15]	Activity [16]	Activity [17]	Activity [18]	Activity [19]	Activity [20]	Activity [21]	further results
C=CCNC(=O)c1cn(C)nc1OCc1cccc(C(F)(F)F)c1	Active	Active	Active	inactive	Active	Active	inactive	Active	Non-toxic	inactive	Active	inactive	inactive	Active	Active	Active	Active	Active	Active	Active	Activity [8]: inactive; Activity [22]: inactive; Activity [23]: Active; Activity [24]: Active; Activity [25]: inactive; Activity [26]: Active; Activity [27]: Active; Activity [28]: inactive
CCONC(=O)c1cn(C(C)(C)C)nc1OCc1cccc(C(F)(F)F)c1	Active	Active	Active	inactive	Active	Active	inactive	Active	Non-toxic	inactive	Active	inactive	inactive	Active	Active	Active	Active	Active	Active	Active	Activity [8]: inactive; Activity [22]: inactive; Activity [23]: Active; Activity [24]: Active; Activity [25]: inactive; Activity [26]: Active; Activity [27]: Active; Activity [28]: inactive
CCONC(=O)c1cn(C(F)F)nc1OCc1cccc(C(F)(F)F)c1	Active	Active	Active	Active	Active	Active	Active	Active	Non-toxic	Active	Active	Active	Active	Active	Active	Active	Active	Active	Active	Active	Activity [29]: Active; Activity [30]: Active; Activity [31]: Active; Activity [32]: inactive; Activity [33]: Active; Activity [34]: Non-toxic; Activity [35]: Active; Activity [36]: Active; Activity [22]: Active; Activity [23]: Active; Activity [24]: Active; Activity [25]: Active; Activity [26]: Active; Activity [27]: Active; Activity [28]: Active; Activity [37]: Active
CCN(C(=O)c1cn(C)nc1OCc1cccc(C(F)(F)F)c1)C1CCCCC1	Active	Active	Active	inactive	Active	Active	inactive	Active	Non-toxic	inactive	Active	inactive	inactive	Active	Active	Active	Active	Active	Active	Active	Activity [8]: inactive; Activity [22]: inactive; Activity [23]: Active; Activity [24]: Active; Activity [25]: inactive; Activity [26]: Active; Activity [27]: Active; Activity [28]: inactive
Cn1cc(C(=O)NOc2ccc(C(C)(C)C)cc2)c(OCc2cccc(C(F)(F)F)c2)n1	Active	Active	Active	inactive	Active	Active	inactive	Active	Non-toxic	inactive	Active	inactive	inactive	Active	Active	Active	Active	Active	Active	Active	Activity [8]: inactive; Activity [22]: inactive; Activity [23]: Active; Activity [24]: Active; Activity [25]: inactive; Activity [26]: Active; Activity [27]: Active; Activity [28]: inactive

Source: ChEMBL document CHEMBL3046635, “Synthesis and Herbicidal Activity of New Pyrazole-4-carboxamide Derivatives” (J Pestic Sci, 2004)
